Reference: patent US9839701B2, “Aromatic amino acid derivative and positron emission topography (PET) probe using the same” (OSAKA UNIVERSITY, priority 2013, dated 2017)

Tests used:
[1] = molecular target: T1, human LAT1 (Homo sapiens, UniProt Q01650); experiment: Inhibition of amino acid uptake in human LAT1 stably expressing cell line; assay type: cell-based
T1 construct: expressed in transfected cells
Source text: A human LAT1 expression vector or a human LAT2 expression vector was transfected using Lipofectamine (registered trademark) 2000 (Invitrogen) into a human embryonic kidney cell line HEK293. G418-resistant HEK293 clones were selected, and among them, a clone showing human LAT1-specific amino acid uptake and a clone showing human LAT2-specific amino acid uptake were selected and established as a human LAT1 stably expressing cell line and a human LAT2 stably expressing cell line, respectively (Khunweeraphong et al. J Pharmacol Sci. 2012 Aug. 18; 119(4): 368-80. Epub 2012 Jul. 31).
The human LAT1 stably expressing cell line and the human LAT2 stably expressing cell line were seeded at 1.2×10^5 cells/well on separate collagen-coated 24-well plates, and after 48 hours, the cells were washed 3 times with an uptake buffer (Na^2+-free Hank's balanced salt solution (HBSS), pH 7.4) prewarmed at 37° C. Compound 10a, compound 10b or a positive control FAMT (fluoro-α-methyltyrosine) was added at 100 μM, and incubation was performed at 37° C. for 3 minutes. Cells not treated with any of these compounds were used as a negative control. After the incubation, 1 μM of [^14C]L-leucine or [^14C]alanine was added to the wells, [^14C]L-leucine or [^14C]alanine uptake was allowed to proceed for 1 minute, and the cells were washed 3 times with an ice-cold uptake buffer. Subsequently, 500 μL of 0.1 M NaOH was added to each well for cell lysis, 20 μL of the lysate was used for the measurement of the protein concentration, and the remaining lysate was used for the measurement of the intracellular radioactivity. The measured radioactivity was normalized to the protein concentration, and on the assumption that the amino acid uptake activity in the negative control was 100%, the percentage (%) of inhibition of amino acid uptake in the presence of each compound was calculated.
Using the same cell lines as described in Example 2, the compound of Example 1 was examined for the inhibitory effect on leucine or alanine uptake in the human LAT1 stably expressing cell line and the human LAT2 stably expressing cell line in the same manner as in Example 2. FAMT was used as the positive control. The compound of Example 1 or FAMT was added at 100 μM. Cells not treated with either of these compounds were used as a negative control. On the assumption that the amino acid uptake activity in the negative control (control) was 100%, the percentage (%) of inhibition of amino acid uptake in the presence of FAMT or the compound of Example 1 was calculated. In addition, the cancer cell selectivity was calculated as the ratio of the amino acid uptake activity in the human LAT2 stably expressing cell line relative to that in the human LAT1 stably expressing cell line.
In another experiment, the cells were treated with the compound of Example 1 at eight different concentrations (0.1, 1, 3, 10, 30, 100, 300 and 1000 μM), and the concentration causing 50% inhibition of amino acid uptake was calculated as the IC50 value.
A human LAT1 stably expressing cell line and a human LAT2 stably expressing cell line, each of which was the same as described in Example 2, were seeded at 1.2×10^5 cells/well, and after 48 hours, the cells were washed 3 times with an uptake buffer (Na^2+-free Hank's balanced salt solution (HBSS), pH 7.4) prewarmed at 37° C. The test compounds, L-tyrosine or the positive control FAMT (fluoro-α-methyltyrosine) was added at 30 μM, and incubation was performed at 37° C. for 3 minutes. Cells not treated with any of these compounds were used as a negative control. After the incubation, 1 μM of [^14C]L-leucine or [^14C]alanine was added to the wells, [^14C]L-leucine or [^14C]alanine uptake was allowed to proceed for 1 minute, and the cells were washed 3 times with an ice-cold uptake buffer. […]

[2] = tested on: tumor derived from human pancreatic carcinoma cell line MIAPaCa-2; experiment: Accumulation in subcutaneous tumor of nude mouse, HPLC detection after PITC labeling; assay type: in vivo; settings: 100 nmol via tail vein, tumor excised 1 hour after administration, FIG. 3
Protocol: A tumor derived from subcutaneously implanted MIAPaCa-2 cells in a nude mouse was excised, and 0.1 g of the tumor was subcutaneously transplanted into a 6-week-old female nude mouse (BALB/cAJc1-nu). One month after the transplantation, the compound of Example 1 was dissolved in physiological saline at a concentration of 1 mM, and 0.1 mL (100 nmol) of the solution or 0.1 mL of physiological saline was administered from the tail vein. One hour after the administration, the tumor was excised, the amino acids in the tumor tissue were labeled with phenylisothiocyanate (PITC), and the labeled compound was detected by HPLC for evaluation of the accumulation.

[3] = molecular target: T1, human LAT1; experiment: Promoting effect on amino acid efflux from human LAT1 stably expressing cell line; assay type: cell-based
Protocol: In the same manner as in Example 3, the human LAT1 stably expressing cell line and the human LAT2 stably expressing cell line were seeded on separate collagen-coated 24-well plates, and after 48 hours, the cells were washed with an uptake buffer prewarmed at 37° C. An uptake buffer supplemented with 1 μM of [^14C]L-leucine or [^14C]L-alanine was added to each well, and [^14C]L-leucine or [^14C]L-alanine uptake by the cells was allowed to proceed at 37° C. for 10 minutes. […] The radioactivity in each supernatant was measured as the radioactivity of the amino acid released from the cells. Subsequently, 500 μL of 0.1 M NaOH was added to each well for cell lysis, 20 μL of the lysate was used for the measurement of the protein concentration, and the remaining lysate was used for the measurement of the residual radioactivity in the cells. The sum of the residual radioactivity and the released radioactivity in each experiment was checked to confirm that there was no great difference in the total radioactivity incorporated into the cells at the preloading among the experiments. […]
Based on the measured values of amino acid efflux at the indicated concentrations of each compound, the Km value for amino acid efflux from the human LAT1 stably expressing cell line and the Km value for amino acid efflux from the human LAT2 stably expressing cell line were calculated and shown in Table 5. […]

T1 sequence (Q01650 whole entry): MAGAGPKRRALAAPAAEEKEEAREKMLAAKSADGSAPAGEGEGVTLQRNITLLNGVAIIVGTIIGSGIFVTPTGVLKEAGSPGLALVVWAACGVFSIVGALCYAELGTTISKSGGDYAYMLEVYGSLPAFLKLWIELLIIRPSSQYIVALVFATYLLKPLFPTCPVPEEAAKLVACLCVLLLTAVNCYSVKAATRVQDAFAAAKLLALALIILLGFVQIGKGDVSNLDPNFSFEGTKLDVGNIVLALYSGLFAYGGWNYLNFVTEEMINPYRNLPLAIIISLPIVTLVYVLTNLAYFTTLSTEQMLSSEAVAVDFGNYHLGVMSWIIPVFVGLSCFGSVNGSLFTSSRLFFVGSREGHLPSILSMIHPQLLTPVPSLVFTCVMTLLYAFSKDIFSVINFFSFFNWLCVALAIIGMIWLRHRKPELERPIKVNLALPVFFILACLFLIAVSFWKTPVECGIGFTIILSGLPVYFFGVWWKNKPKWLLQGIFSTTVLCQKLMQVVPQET
T1 sequence (P08195 102-630 partner): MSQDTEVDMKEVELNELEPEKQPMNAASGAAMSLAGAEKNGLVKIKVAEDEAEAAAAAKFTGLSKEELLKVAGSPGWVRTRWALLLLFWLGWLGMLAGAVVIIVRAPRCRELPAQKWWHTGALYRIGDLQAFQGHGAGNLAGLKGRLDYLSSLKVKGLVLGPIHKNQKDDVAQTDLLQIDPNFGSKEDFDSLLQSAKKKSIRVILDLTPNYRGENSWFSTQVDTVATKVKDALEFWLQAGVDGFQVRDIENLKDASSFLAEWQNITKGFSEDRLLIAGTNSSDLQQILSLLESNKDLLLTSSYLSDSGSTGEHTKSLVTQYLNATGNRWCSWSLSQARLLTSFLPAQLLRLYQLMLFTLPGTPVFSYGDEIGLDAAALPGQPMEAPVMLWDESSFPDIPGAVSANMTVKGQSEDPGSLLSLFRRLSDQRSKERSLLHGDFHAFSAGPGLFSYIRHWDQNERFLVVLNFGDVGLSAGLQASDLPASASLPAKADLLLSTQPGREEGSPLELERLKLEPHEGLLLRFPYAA

inhibition at 100 µM ([1]; HEK293, compound at 100 μM, human LAT1 stably expressing HEK293 cell line, 1 μM [14C]L-leucine or [14C]alanine, 1 min uptake, read-out: Percentage of inhibition of LAT1-mediated amino acid uptake): 92.5%
IC50 ([1]; eight concentrations 0.1-1000 μM): 9.2 µM
Selectivity for LAT1 over LAT2 ([1]; from IC50 values): ≥ 9 times
Accumulation in tumor [2]: accumulated intensively in the tumor
Promoting effect on amino acid efflux via human LAT1, compared with FAMT ([3]; 10 μM, 1 min, FIG. 2): twice or more higher than that of FAMT
Affinity for human LAT1 relative to FAMT ([3]; from Km values): ≥ 10 times
Compound: NC(Cc1cc(OCCF)ccc1I)C(=O)O (stereo not drawn) [Example 1, 2-amino-3-(5-(2-fluoroethoxy)-2-iodophenyl)propanoic acid]
